Measured values: PMC2948534 (American journal of respiratory cell and molecular biology, 2005)
Ends that are not written are not given here.

Experiments:
A549 epithelial cells = assay: LDH release; assay type: cell-based, human; conditions: for effect of receptor inhibitor on LL-37-induced LDH release: 1 h pretreatment (pertussis toxin 100 ng/ml; PD1683 2 μM; AG1478 1 μM), then 50 μg/ml LL-37 for 24 h, DMEM without serum
[1] = tested on: airway epithelial or monocyte-like cell line; conditions: presence of FBS; cited from earlier work

In the case of `COc1cc2ncnc(Nc3cccc(Cl)c3)c2cc1OC` [AG1478], the “effect of receptor inhibitor on LL-37-induced LDH release” value (“effect of receptor inhibitor” below) (A549 epithelial cells) was “No decrease in LDH release”.
With `C=CC(=O)Nc1ccc2ncnc(Nc3cccc(Br)c3)c2c1` [PD1683] the “effect of receptor inhibitor” value (A549 epithelial cells) was “No decrease in LDH release”.
For CRAMP, the “LDH release effects at >100 μg/ml in the presence of human serum” value (A549 epithelial cells; 10% human serum, data not shown) was “similarly suppressed”, the “cell death compared with LL-37” value (A549 epithelial cells; A549 cells) was “induced significantly less cell death than LL-37” and the “concentrations at which no statistically significant LDH release was observed” value (A549 epithelial cells; data not shown) was under 100 µg/mL.
For “indolicidin: cathelicidin peptide (ILPWKWPWWPWRR; ends and bridges not checked; UniProt P33046 131-143, looked up)”, the “induction of cell death” value [1] is listed as “do not induce cell death”.
For pertussis toxin, the “effect of receptor inhibitor” value (A549 epithelial cells) was “No decrease in LDH release”.
